{"source": "PubChem BioAssay AID1963865", "about": "(Molecular Pharmacology Branch, DTP, NCI, 2024)", "system": "KRAS PDC multicell spheroid viability", "test": "Anticancer human tumor 825966-067-R-J1-PDC patient-derived colon carcinoma cell line growth inhibition [KRAS2]", "details": "for viability, T/C: stronger effect = lower value", "in_short": "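Combination screen of spheroid viability in tumor-cell co-cultures with endothelial (HUVEC) and mesenchymal stem cell stroma. Each agent was tested in half-log dilutions, topping at clinical Cmax or at 10 microM without a known Cmax.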", "key": {"[1]": {"details": "curve of first compound, second compound 0.0316 µM"}, "[2]": {"details": "curve of first compound, second compound 0.1 µM"}, "[3]": {"details": "curve of first compound, second compound 0.316 µM"}, "[4]": {"details": "curve of first compound, second compound 1 µM"}, "[5]": {"details": "curve of first compound, second compound 3.16 µM"}, "[6]": {"details": "second compound 0.0316 µM, first compound 0.0316 µM"}, "[7]": {"details": "second compound 0.0316 µM, first compound 0.1 µM"}, "[8]": {"details": "second compound 0.0316 µM, first compound 0.316 µM"}, "[9]": {"details": "second compound 0.0316 µM, first compound 1 µM"}, "[10]": {"details": "second compound 0.0316 µM, first compound 3.16 µM"}, "[11]": {"details": "second compound 0.1 µM, first compound 0.0316 µM"}, "[12]": {"details": "second compound 0.1 µM, first compound 0.1 µM"}, "[13]": {"details": "second compound 0.1 µM, first compound 0.316 µM"}, "[14]": {"details": "second compound 0.1 µM, first compound 1 µM"}, "[15]": {"details": "second compound 0.1 µM, first compound 3.16 µM"}, "[16]": {"details": "second compound 0.316 µM, first compound 0.0316 µM"}, "[17]": {"details": "second compound 0.316 µM, first compound 0.1 µM"}, "[18]": {"details": "second compound 0.316 µM, first compound 0.316 µM"}, "[19]": {"details": "second compound 0.316 µM, first compound 1 µM"}, "[20]": {"details": "second compound 0.316 µM, first compound 3.16 µM"}, "[21]": {"details": "second compound 1 µM, first compound 0.0316 µM"}, "[22]": {"details": "second compound 1 µM, first compound 0.1 µM"}, "[23]": {"details": "second compound 1 µM, first compound 0.316 µM"}, "[24]": {"details": "second compound 1 µM, first compound 1 µM"}, "[25]": {"details": "second compound 1 µM, first compound 3.16 µM"}, "[26]": {"details": "second compound 3.16 µM, first compound 0.0316 µM"}, "[27]": {"details": "second compound 3.16 µM, first compound 0.1 µM"}, "[28]": {"details": "second compound 3.16 µM, first compound 0.316 µM"}, "[29]": {"details": "second compound 3.16 µM, first compound 1 µM"}, "[30]": {"details": "second compound 3.16 µM, first compound 3.16 µM"}, "[31]": {"details": "compound alone, run of 08/26/2021"}, "[32]": {"details": "compound alone, run of 09/02/2021"}}, "note": "“And” between values parts separate entries of the source, which are not always exact repeats. Equal entries are not always repeated.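 Further: spheroids exposed to compounds for 7 days.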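 Wherever viability, T/C is given: 100% = DMSO vehicle control viability.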", "data": [{"smiles": "CCNC(=O)CC1N=C(c2ccc(Cl)cc2)c2cc(OC)ccc2-n2c(C)nnc21", "note": "(stereo not drawn) + C=CC(=O)N1CCN(c2nc(OCC3CCCN3C)nc3c2CCN(c2cccc4cccc(C)c24)C3)CC1CC#N", "values": [{"measurement": "IC50", "setting": "[1]", "result": "> 10", "unit": "µM"}, {"measurement": "IC50", "setting": "[2]", "result": "> 10", "unit": "µM"}, {"measurement": "IC50", "setting": "[3]", "result": "> 10", "unit": "µM"}, {"measurement": "IC50", "setting": "[4]", "result": "> 10", "unit": "µM"}, {"measurement": "IC50", "setting": "[5]", "result": 0.725, "unit": "µM"}, {"measurement": "viability, T/C", "setting": "[6]", "result": 80.1, "unit": "%"}, {"measurement": "viability, T/C", "setting": "[7]", "result": 112, "unit": "%"}, {"measurement": "viability, T/C", "setting": "[8]", "result": 118, "unit": "%"}, {"measurement": "viability, T/C", "setting": "[9]", "result": 115, "unit": "%"}, {"measurement": "viability, T/C", "setting": "[10]", "result": 82.2, "unit": "%"}, {"measurement": "viability, T/C", "setting": "second compound 0.0316 µM, first compound 10 µM", "result": 75.9, "unit": "%"}, {"measurement": "viability, T/C", "setting": "[11]", "result": 79.5, "unit": "%"}, {"measurement": "viability, T/C", "setting": "[12]", "result": 112, "unit": "%"}, {"measurement": "viability, T/C", "setting": "[13]", "result": 113, "unit": "%"}, {"measurement": "viability, T/C", "setting": "[14]", "result": 89.5, "unit": "%"}, {"measurement": "viability, T/C", "setting": "[15]", "result": 79.4, "unit": "%"}, {"measurement": "viability, T/C", "setting": "second compound 0.1 µM, first compound 10 µM", "result": 75.9, "unit": "%"}, {"measurement": "viability, T/C", "setting": "[16]", "result": 90, "unit": "%"}, {"measurement": "viability, T/C", "setting": "[17]", "result": 119, "unit": "%"}, {"measurement": "viability, T/C", "setting": "[18]", "result": 121, "unit": "%"}, {"measurement": "viability, T/C", "setting": "[19]", "result": 118, "unit": "%"}, {"measurement": "viability, T/C", "setting": "[20]", "result": 69.7, "unit": "%"}, {"measurement": "viability, T/C", "setting": "second compound 0.316 µM, first compound 10 µM", "result": 72.4, "unit": "%"}, {"measurement": "viability, T/C", "setting": "[21]", "result": 91.8, "unit": "%"}, {"measurement": "viability, T/C", "setting": "[22]", "result": 110, "unit": "%"}, {"measurement": "viability, T/C", "setting": "[23]", "result": 126, "unit": "%"}, {"measurement": "viability, T/C", "setting": "[24]", "result": 85.8, "unit": "%"}, {"measurement": "viability, T/C", "setting": "[25]", "result": 44.4, "unit": "%"}, {"measurement": "viability, T/C", "setting": "second compound 1 µM, first compound 10 µM", "result": 59.5, "unit": "%"}, {"measurement": "viability, T/C", "setting": "[26]", "result": 109, "unit": "%"}, {"measurement": "viability, T/C", "setting": "[27]", "result": 125, "unit": "%"}, {"measurement": "viability, T/C", "setting": "[28]", "result": 87.6, "unit": "%"}, {"measurement": "viability, T/C", "setting": "[29]", "result": 20.3, "unit": "%"}, {"measurement": "viability, T/C", "setting": "[30]", "result": 55.5, "unit": "%"}, {"measurement": "viability, T/C", "setting": "second compound 3.16 µM, first compound 10 µM", "result": 30.7, "unit": "%"}]}, {"smiles": "CC1COCCN1c1cc(-c2ccnn2C)c2ccnc(-c3ccn[nH]3)c2n1", "note": "(stereo not drawn) + C=CC(=O)N1CCN(c2nc(OCC3CCCN3C)nc3c2CCN(c2cccc4cccc(C)c24)C3)CC1CC#N", "values": [{"measurement": "IC50", "setting": "[1]", "result": "> 3.16", "unit": "µM"}, {"measurement": "IC50", "setting": "[2]", "result": "> 3.16", "unit": "µM"}, {"measurement": "IC50", "setting": "[3]", "result": 0.208, "unit": "µM"}, {"measurement": "IC50", "setting": "[4]", "result": 0.0895, "unit": "µM"}, {"measurement": "IC50", "setting": "[5]", "result": 0.0145, "unit": "µM"}, {"measurement": "viability, T/C", "setting": "second compound 0.0316 µM, first compound 0.01 µM", "result": 118, "unit": "%"}, {"measurement": "viability, T/C", "setting": "[6]", "result": 102, "unit": "%"}, {"measurement": "viability, T/C", "setting": "[7]", "result": 69.1, "unit": "%"}, {"measurement": "viability, T/C", "setting": "[8]", "result": 56.7, "unit": "%"}, {"measurement": "viability, T/C", "setting": "[9]", "result": 73.8, "unit": "%"}, {"measurement": "viability, T/C", "setting": "[10]", "result": 46.4, "unit": "%"}, {"measurement": "viability, T/C", "setting": "second compound 0.1 µM, first compound 0.01 µM", "result": 101, "unit": "%"}, {"measurement": "viability, T/C", "setting": "[11]", "result": 114, "unit": "%"}, {"measurement": "viability, T/C", "setting": "[12]", "result": 63.6, "unit": "%"}, {"measurement": "viability, T/C", "setting": "[13]", "result": 46.8, "unit": "%"}, {"measurement": "viability, T/C", "setting": "[14]", "result": 70.6, "unit": "%"}, {"measurement": "viability, T/C", "setting": "[15]", "result": 49.5, "unit": "%"}, {"measurement": "viability, T/C", "setting": "second compound 0.316 µM, first compound 0.01 µM", "result": 94.5, "unit": "%"}, {"measurement": "viability, T/C", "setting": "[16]", "result": 119, "unit": "%"}, {"measurement": "viability, T/C", "setting": "[17]", "result": 65, "unit": "%"}, {"measurement": "viability, T/C", "setting": "[18]", "result": 41.6, "unit": "%"}, {"measurement": "viability, T/C", "setting": "[19]", "result": 61.1, "unit": "%"}, {"measurement": "viability, T/C", "setting": "[20]", "result": 21.7, "unit": "%"}, {"measurement": "viability, T/C", "setting": "second compound 1 µM, first compound 0.01 µM", "result": 120, "unit": "%"}, {"measurement": "viability, T/C", "setting": "[21]", "result": 123, "unit": "%"}, {"measurement": "viability, T/C", "setting": "[22]", "result": 39.6, "unit": "%"}, {"measurement": "viability, T/C", "setting": "[23]", "result": 56.3, "unit": "%"}, {"measurement": "viability, T/C", "setting": "[24]", "result": 39.3, "unit": "%"}, {"measurement": "viability, T/C", "setting": "[25]", "result": 34.4, "unit": "%"}, {"measurement": "viability, T/C", "setting": "second compound 3.16 µM, first compound 0.01 µM", "result": 64.1, "unit": "%"}, {"measurement": "viability, T/C", "setting": "[26]", "result": 20.2, "unit": "%"}, {"measurement": "viability, T/C", "setting": "[27]", "result": 23.1, "unit": "%"}, {"measurement": "viability, T/C", "setting": "[28]", "result": 9.83, "unit": "%"}, {"measurement": "viability, T/C", "setting": "[29]", "result": 15.4, "unit": "%"}, {"measurement": "viability, T/C", "setting": "[30]", "result": 25.3, "unit": "%"}]}, {"smiles": "COc1cc2nc(C)nc(NC(C)c3cc(N)cc(C(F)(F)F)c3)c2cc1OC1CCOC1", "note": "(stereo not drawn)", "values": [{"measurement": "IC50", "setting": "[31]", "result": "5.81 µM [middle of 5 runs]"}, {"measurement": "IC50", "setting": "[32]", "result": "> 10 µM and 7.54 µM"}]}, {"smiles": "CC1OCC2(CCN(c3cnc(Sc4ccnc(N)c4Cl)c(N)n3)CC2)C1N", "note": "(stereo not drawn)", "values": [{"measurement": "viability, T/C", "setting": "compound 0.0316 µM", "result": "82% and 80.9% and 85.5%"}, {"measurement": "viability, T/C", "setting": "compound 0.1 µM", "result": "92.7% [middle of 19 runs]"}, {"measurement": "IC50", "setting": "compound alone, run of 08/19/2021", "result": "> 10 µM and 9.29 µM"}, {"measurement": "IC50", "setting": "[31]", "result": "7.63 µM [middle of 5 runs]"}, {"measurement": "IC50", "setting": "[32]", "result": "> 10 µM and 8.08 µM"}, {"measurement": "IC50", "setting": "curve of compound", "result": "9.31 µM and 8.73 µM and > 10 µM"}]}]}
